Like-named read-outs stand apart in the source and are kept apart here.
How the values were obtained:
human μ-opioid receptor = target: T1, human μ-opioid receptor (Homo sapiens, UniProt P35372); assay: Human μ-opioid receptor radioligand assay ([3H]-DAMGO); assay type: binding
T1 construct: expressed in transfected cells; host or cells: CHO-K1
Method: Human μ-Opioid Receptor Radioligand Assay
To investigate binding properties of test compounds to human μ-opioid receptor, transfected CHO-K1 cell membranes and [^3H]-DAMGO (Perkin Elmer, ES-542-C), as the radioligand, were used. The assay was carried out with 20 μg of membrane suspension, 1 nM of [^3H]-DAMGO in either absence or presence of either buffer or 10 μM Naloxone for total and non-specific binding, respectively. Binding buffer contained Tris-HCl 50 mM, MgCl2 5 mM at pH 7.4. Plates were incubated at 27° C. for 60 minutes. After the incubation period, the reaction mix was then transferred to MultiScreen HTS, FC plates (Millipore), filtered and plates were washed 3 times with ice-cold 10 mM Tris-HCL (pH 7.4). Filters were dried and counted at approximately 40% efficiency in a MicroBeta scintillation counter (Perkin-Elmer) using EcoScint liquid scintillation cocktail.

[1] = target: Human α2δ-1 subunit of Cav2.2 calcium channel (Homo sapiens, UniProt P54289); assay: Human α2δ-1 subunit of Cav2.2 calcium channel assay ([3H]-Gabapentin binding)
Chain of Human α2δ-1 subunit of Cav2.2 calcium channel (P54289 25-1103): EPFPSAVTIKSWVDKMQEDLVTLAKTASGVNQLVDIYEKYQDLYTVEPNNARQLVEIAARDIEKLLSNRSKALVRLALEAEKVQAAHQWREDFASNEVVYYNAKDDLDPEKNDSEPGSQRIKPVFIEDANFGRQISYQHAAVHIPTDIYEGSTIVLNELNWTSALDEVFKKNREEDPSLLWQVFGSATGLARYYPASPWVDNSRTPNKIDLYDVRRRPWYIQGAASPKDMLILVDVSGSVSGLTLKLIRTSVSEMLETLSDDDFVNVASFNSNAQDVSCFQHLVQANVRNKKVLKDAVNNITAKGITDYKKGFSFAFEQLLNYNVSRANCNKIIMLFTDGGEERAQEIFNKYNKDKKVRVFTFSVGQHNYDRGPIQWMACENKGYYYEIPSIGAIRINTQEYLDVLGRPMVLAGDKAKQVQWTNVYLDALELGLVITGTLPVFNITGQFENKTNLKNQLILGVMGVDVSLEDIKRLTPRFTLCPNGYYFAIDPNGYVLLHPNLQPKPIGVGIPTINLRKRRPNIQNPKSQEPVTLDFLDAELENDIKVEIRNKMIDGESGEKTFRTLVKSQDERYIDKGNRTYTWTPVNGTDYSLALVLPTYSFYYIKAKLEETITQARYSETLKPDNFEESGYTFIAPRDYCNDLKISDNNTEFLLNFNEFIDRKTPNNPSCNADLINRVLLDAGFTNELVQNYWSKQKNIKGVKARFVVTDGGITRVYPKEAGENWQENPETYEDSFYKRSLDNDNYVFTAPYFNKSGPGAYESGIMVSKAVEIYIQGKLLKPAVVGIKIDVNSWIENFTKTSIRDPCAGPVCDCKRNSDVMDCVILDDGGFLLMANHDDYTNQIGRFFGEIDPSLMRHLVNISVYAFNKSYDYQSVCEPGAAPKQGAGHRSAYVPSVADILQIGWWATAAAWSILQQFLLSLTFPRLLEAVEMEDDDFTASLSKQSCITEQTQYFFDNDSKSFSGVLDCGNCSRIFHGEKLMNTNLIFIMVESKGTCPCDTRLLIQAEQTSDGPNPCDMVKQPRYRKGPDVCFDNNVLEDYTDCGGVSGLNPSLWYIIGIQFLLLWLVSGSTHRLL
Method: Human α2δ-1 Subunit of Cav2.2 Calcium Channel Assay
Human α2δ-1 enriched membranes (2.5 μg) were incubated with 15 nM of radiolabeled [3H]-Gabapentin in assay buffer containing Hepes-KOH 10 mM, pH 7.4. NSB (non specific binding) was measured by adding 10 μM pregabalin. After 60 min incubation at 27° C., binding reaction was terminated by filtering through Multiscreen GF/C (Millipore) presoaked in 0.5% polyethyleneimine in Vacuum Manifold Station, followed by 3 washes with ice-cold filtration buffer containing 50 mM Tris-HCl, pH 7.4. Filter plates were dried at 60° C. for 1 hour and 30 μl of scintillation cocktail were added to each well before radioactivity reading. Readings were performed in a Trilux 1450 Microbeta radioactive counter (Perkin Elmer).

[2] = transfected CHO-K1 cell membranes, 1 nM [3H]-DAMGO, read-out: μ binding
[3] = human α2δ-1 enriched membranes, 15 nM [3H]-Gabapentin, read-out: α2δ-1 binding

T1 sequence (P35372 whole entry): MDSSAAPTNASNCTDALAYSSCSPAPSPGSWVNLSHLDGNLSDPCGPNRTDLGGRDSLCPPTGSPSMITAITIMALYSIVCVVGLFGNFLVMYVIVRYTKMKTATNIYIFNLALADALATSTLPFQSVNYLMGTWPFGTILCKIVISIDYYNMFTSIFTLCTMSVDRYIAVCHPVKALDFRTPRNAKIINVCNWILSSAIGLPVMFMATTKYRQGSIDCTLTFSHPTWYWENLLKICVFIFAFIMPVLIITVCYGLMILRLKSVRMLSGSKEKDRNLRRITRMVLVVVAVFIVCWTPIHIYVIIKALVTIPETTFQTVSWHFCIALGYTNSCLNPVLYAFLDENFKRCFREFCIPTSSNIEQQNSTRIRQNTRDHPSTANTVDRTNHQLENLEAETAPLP

| Ki (human μ-opioid receptor; [2]) [nM] | Ki [1, 3] [nM] | Compound | Ki (human μ-opioid receptor) [nM] | Ki [1] [nM] |
| --- | --- | --- | --- | --- |
| > 500 | 500 to 3000 | NCc1cc(Cc2ccc(Nc3nccs3)cc2)n(-c2ccc(Cl)cc2Cl)n1 [Example 74, N-(4-{[3-(Aminomethyl)-1-(2,4-dichlorophenyl)-1H-pyrazol-5-yl]methyl}phenyl)thiazol-2-amine] |  |  |
| > 500 | 500 to 3000 | CC(N)c1cc(Cc2ccc(OCCO)cc2)n(-c2ccc(Cl)cc2Cl)n1 (centres unmarked) [Example 75, 2-(4-{[3-(1-Aminoethyl)-1-(2,4-dichlorophenyl)-1H-pyrazol-5-yl]methyl}phenoxy)ethan-1-ol] |  |  |
|  |  | NC(CC(=O)O)c1cc(Cc2ccc(O)cc2)n(-c2ccc(Cl)cc2Cl)n1 (centres unmarked) [Example 76, 3-Amino-3-[1-(2,4-dichlorophenyl)-5-(4-hydroxybenzyl)-1H-pyrazol-3-yl]propanoic acid] | 100 to 500 | > 5000 |
|  |  | NC(=O)CC(N)c1cc(Cc2ccc(O)cc2)n(-c2ccc(Cl)cc2Cl)n1 (centres unmarked) [Example 77, 3-Amino-3-[1-(2,4-dichlorophenyl)-5-(4-hydroxybenzyl)-1H-pyrazol-3-yl]propanamide] | < 100 | > 5000 |
